Publication PMC8678482, “Suppression of the Lycopene Cyclase Gene Causes Downregulation of Ascorbate Peroxidase Activity and Decreased Glutathione Pool Size, Leading to H2O2 Accumulation in Euglena gracilis” (Frontiers in Plant Science, 2021)

Target: T1, EgLCY (Euglena gracilis, UniProt A0A7I8I611)
T1 construct: gene lcy; full-length open reading frame in pETDuet-1 (pET-EgLCY, NcoI In-Fusion), expressed in lycopene-accumulating E. coli BL21(DE3) carrying pACCRT-EIB
T1 sequence (A0A7I8I611 1-652): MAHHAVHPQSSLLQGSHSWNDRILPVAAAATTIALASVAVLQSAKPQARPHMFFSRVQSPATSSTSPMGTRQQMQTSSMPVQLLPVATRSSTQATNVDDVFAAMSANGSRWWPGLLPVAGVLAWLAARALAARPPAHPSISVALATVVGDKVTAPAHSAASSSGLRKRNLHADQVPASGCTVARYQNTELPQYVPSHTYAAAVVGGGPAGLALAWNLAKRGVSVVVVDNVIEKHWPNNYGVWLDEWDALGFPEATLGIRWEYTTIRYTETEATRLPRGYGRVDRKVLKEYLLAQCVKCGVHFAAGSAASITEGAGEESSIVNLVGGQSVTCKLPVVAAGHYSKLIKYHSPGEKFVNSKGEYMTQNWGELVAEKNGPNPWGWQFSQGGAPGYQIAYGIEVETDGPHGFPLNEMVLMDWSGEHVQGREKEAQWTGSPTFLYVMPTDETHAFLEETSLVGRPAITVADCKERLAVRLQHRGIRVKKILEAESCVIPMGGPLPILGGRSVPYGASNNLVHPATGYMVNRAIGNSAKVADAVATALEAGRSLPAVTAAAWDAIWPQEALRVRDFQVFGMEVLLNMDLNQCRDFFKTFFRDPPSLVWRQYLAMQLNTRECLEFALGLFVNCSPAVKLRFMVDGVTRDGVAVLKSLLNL
Experiment: in vivo conversion in lycopene-accumulating E. coli, HPLC of carotenoid extracts
Format: cell-based
Conditions: co-expression with Pantoea ananatis crtE, crtB, crtI; 48 h at 21°C after IPTG

## CC(C)=CCC/C(C)=C/C=C/C(C)=C/C=C/C(C)=C/C=C/C=C(C)/C=C/C=C(C)/C=C/C=C(\C)CCC=C(C)C [lycopene]
  in vivo conversion in lycopene-accumulating E. coli, HPLC of carotenoid extracts: This indicates that EgLCY is a lycopene β-cyclase that converts lycopene to β-carotene.

## CC1=C(/C=C/C(C)=C/C=C/C(C)=C/C=C/C=C(C)/C=C/C=C(C)/C=C/C2=C(C)CCCC2(C)C)C(C)(C)CCC1 [β-carotene]
  in vivo conversion in lycopene-accumulating E. coli, HPLC of carotenoid extracts: accumulated β-carotene as the main carotenoid when the EgLCY gene was co-expressed
